Assay results from patent US9642821B2, “MiR-182 in the diagnosis and treatment of cancer” (Dana-Farber Cancer Institute, Inc., priority 2010, dated 2017).
Entries after “also recorded” stand apart in the source; their conditions may differ.

Experiments:
Type in all cases: cell-based
[1] = tested on: BRCA1 3′UTR-luciferase reporter; test: Luciferase reporter assay with BRCA1 3′UTR in HeLa cells
Experimental: The wild type (WT) and mutated (M) miR-182 recognition elements of 3′UTR-BRCA1 were annealed (see below) and cloned in expression vector, pMIR-REPORT (Ambion, Austin, Tex.) downstream to Firefly Luciferase.
Hela cells were co-transfected in a 24 well tissue culture plate with 10 nM control mimic (Ambion, Austin, Tex.) or miR-182 mimic (Ambion, Austin, Tex.), 0.2 μg 3′UTR-BRCA1-WT or 3′UTR-BRCA1-M, and 0.2 μg Renilla luciferase in pRL-TK (Promega, Madison, Wis.) vector using lipofectamine 2000 as described in manufacture's manual. Cells were harvested on day 2 and the luciferase activity was assayed with the Dual-Luciferase Assay System (Promega, Madison, Wis.) and a Synergy HT microplate reader (BioTek, Winooski, Vt.) as described in manufacture's manual.

[2] = tested on: BRCA1; test: BRCA1 immunoblot in MDA-MB231 cells; details: MDA-MB231 cells overexpressing miR-182 vs miR-scr
Experimental: In each experiment, where Western blot analysis was done, a fraction of 0.2−0.5×10^6 cells was taken out at day, 3 or 4, post-transfection. Breast cancer cell lines were collected from 6 well tissue culture plates (0.5-1×10^6 cells). Cells lysates were prepared in RIPA buffer (150 mM NaCl, 1% NP-40, 0.5% sodium deoxycholate, 0.1% SDS, 50 mM Tris, pH 8.0). Lysates of 0.1×10^6 cells of each sample plus loading buffer were loaded on 8% SDS-PAGE gels, semi-dry transferred on nitrocellulose membrane, and probed with anti-BRCA1 antibody at a 1:500 dilution (CALBIOCHEM, MS110) and anti-tubulin antibody at a 1:10,000 dilution (Sigma, Clone B-5-1-2).

[3] = tested on: BRCA1 transcript; test: Immunoprecipitation of HA-AGO1/miRNA complex, qRT-PCR of bound transcripts, MDA-MB231; details: MDA-MB231, HA-AGO1 IP, normalized to 5S rRNA
Experimental: miR-182 cDNA and miR-17 cDNA was cloned from HL60 cDNA in pcDNA3.1-Puro expression vector (Invitrogen, Carlsbad, Calif.) using the following primers: […]
MDA-MB231 cells (0.5×10^6 cells) were co-transfected with 1 μg of HA-AGO1 (pIRES-FLAG/HA vector, Addgene) and 0.5 μg of expression vector for miR-182/miR-17 or miR-scr using Lipofectamine 2000. After 2 days cells were harvested using 400 μl lysis buffer (100 mM KCl, 5 mM MgCl2, 10 mM Hepes, pH 7.0, 0.5% Nonidet P-40) containing freshly added RNase inhibitor, RNaseOUT (Invitrogen, Carlsbad, Calif.) and Protease Inhibitor Cocktail (Roche, Basel, Switzerland). After centrifugation, a 50 μl aliquot of supernatant was taken as the input for subsequent RNA extraction. The remaining supernatant was gently shaken with HA-beads (HA-probe Santa Cruz sc-7392) for 4 h at 4° C. in spin columns (Pierce Spin Columns-Screw Cap). The columns were drained, washed and the retained beads were treated with 5 U DNaseI in NT2 buffer (50 mM Tris, pH7.4, 150 mM NaCl, 1 mM MgCl2, 0.05% Nonidet P-40) for 10 minutes at 37° C., washed with NT2 buffer and then treated with Proteinase K in NT2 buffer plus 1% SDS for 30 minutes at 55° C. […] RNA was reverse transcribed (see RNA isolation) and analyzed with qPCR for enrichment of mRNA of miR-182/miR-17 predicted targets.

[4] = tested on: MDA-MB231 cells; test: Single-cell gel electrophoresis (comet) assay after irradiation, MDA-MB231; details: MDA-MB231, 18 h repair, vs control mimic
Experimental: 21NT cells (0.35×10^6 cells/well in 6 well tissue culture plate) were transfected with 100 nM control or miR-182 antagomir expression vector (Ambion, Austin, Tex.) whereas MDA-MB231 (0.35×10^6 cells/well on 6 well plate) were transfected with 10 nM control or miR-182 mimic expression vector (Ambion, Austin, Tex.) using Lipofectamine 2000. At day 3 after transfection, cells were irradiated (0, 2, 4 and 6 Gy) and allowed to recover for 18 hours prior to analysis. The single cell comet assays was carried out according manufacturer's instructions (Trevigen, Gaithersburg, Md.). Briefly, treated or untreated cells were collected, resuspended in ice cold PBS at 10^5 cells/ml, mixed with low-melting point agarose (1:10 ratio) and spread on frosted glass slides. After the agarose solidified, the slides were placed in lysis buffer and then in alkaline solutions. […] Nuclei were visualized using epifluorescent illumination on a Zeiss microscope and images analyzed with National Institutes of Health ImageJ software (rsbweb.nih.gov/ij/). DNA damage was quantified for 70-100 cells for each experimental condition by determining the DNA in the comet tail using the software Comet Score (TriTek, Sumerduck, Va.).

[5] = tested on: MDA-MB231 cells; test: Clonogenic cell survival assay with PARP inhibitors, MDA-MB231; details: MDA-MB231, 14 days, vs control mimic
Experimental: Hela cells (0.35×10^6 cells/well), MDA-MB231 cells (0.4×10^6 cells/well), 21NT cells (0.5×10^6) were seeded overnight and transfected with 10 nM of miRNA mimics or antagomirs (Ambion, Austin, Tex.) using Lipofectamine 2000. In rescue experiments, miR-182 or control mimics were co-transfected with 1 μg/ml BRCA1 (pcDNA3.1 vector). After 2 days, 1000 cells in 4 ml DMEM media (10% FBS v/v) were seeded on 6 cm tissue culture dishes in four replicates and allowed to attach overnight before treatment. PARP inhibitors (4-amino-1,8-naphthalimide (Sigma, St. Louis, Mo.) or ABT-888 (ChemieTek, Indianapolis, Ind.) in DMSO) were added to the growth media at indicated concentrations. Irradiated cells as well as cells in the presence of PARP inhibitor were allowed to form colonies for 14 days. For evaluation, formed colonies were stained with crystal violet and surviving colonies containing >50 cells were counted. Plating efficiency was 30-50%.

miR-182: microRNA with sequence 5′ UUUGGCAAUGGUAGAACUCACACU 3′ (SEQ ID NO:1); given as mimic (Ambion) or expression vector (UUUGGCAAUGGUAGAACUCACACU; listed as RNA, chemistry not given here; listed as Homo sapiens)
effect of miR-182 on luciferase with mutated miR-182 recognition sites (BRCA1-M reporter) [1]: significantly reduced the effect; also recorded: rescued this suppression | reduction of luciferase activity, wildtype BRCA1-reporter ([1]; 10 nM mimic, vs control mimic): more than 2 fold | luciferase activity of BRCA1-WT reporter ([1]; normalized to Renilla, p<0.001): suppressed luciferase activity | BRCA1 protein level [2]: sharply reduced; also recorded: lower levels; also recorded: diminish BRCA1 levels; also recorded: down regulates BRCA1 protein levels | association of miRNA/AGO1 complex with BRCA1 transcript [3]: associates selectively; also recorded: significantly enriched | residual DNA damage (unrepaired DSBs) after irradiation [4]: significantly higher residual DNA damage | residual DNA damage (unrepaired DSBs) after irradiation ([4]; listed as 182 mimic): significantly altered | sensitivity to PARP1 inhibitor ABT-888 (clonogenic survival) [5]: sensitize MDA-MB231 cells to PARP1 inhibition | sensitivity to PARP1 inhibitor ANI (clonogenic survival) [5]: sensitize MDA-MB231 cells to PARP1 inhibition | sensitivity to PARP1 inhibitor ABT-888 (clonogenic survival) ([5]; listed as 182 mimic): impacts sensitivity to PARP1 inhibitor ABT-888 | sensitivity to PARP1 inhibitor ANI (clonogenic survival) ([5]; listed as miR-182 mimic): significantly enhanced sensitivity to ANI
